Reference: PubChem BioAssay AID220 (DTP/NCI, 2004)
Several values for one entry are separate records, joined by “and”; a condition that tells them apart may be missing. Equal values may be shown once. Results filed as inconclusive are left out.

System: CD8F1 mice, subcutaneous mammary adenocarcinoma, T/C%
Test: NCI In Vivo Anticancer Drug Screen. Data for tumor model Mammary Adenocarcinoma CD8F1 (subcutaneous) in CD8F1
Conditions: higher = larger tumour
Procedure, shortened: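 Transplantable tumors were established in mice, animals were dosed with compound or vehicle, and survival or tumor size was then measured in both groups. The treated result was divided by the control result.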

[1] = endpoint: median tumor weight (est.), dose: 2.0 mg/kg/injection, schedule: Q07DX005 (ip), vehicle: saline
[2] = endpoint: median tumor weight (est.), dose: 12.5 mg/kg/injection, schedule: Q07DX005 (ip), vehicle: Klucel (hydroxypropylcellulose) (HPC)
[3] = endpoint: median tumor weight (est.), dose: 25.0 mg/kg/injection, schedule: Q07DX005 (ip), vehicle: Klucel (hydroxypropylcellulose) (HPC)
[4] = endpoint: median tumor weight (est.), dose: 50.0 mg/kg/injection, schedule: Q07DX005 (ip), vehicle: Klucel (hydroxypropylcellulose) (HPC)
[5] = endpoint: median tumor weight (est.), dose: 100.0 mg/kg/injection, schedule: Q07DX005 (ip), vehicle: Klucel (hydroxypropylcellulose) (HPC)
[6] = endpoint: median tumor weight (est.), dose: 200.0 mg/kg/injection, schedule: Q07DX005 (ip), vehicle: Klucel (hydroxypropylcellulose) (HPC)

Structure (SMILES): C=C(C)C12CC(C)C34OC(CCCCCCCCCCC)(OC1C3C1OC1(CO)C(O)C1(O)C(=O)C(C)=CC14C)O2 (stereo not given)
- T/C (endpoint: median tumor weight (est.), dose: 100.0 micrograms/kg/injection, schedule: Q07DX005 (ip), vehicle: saline + alcohol): 58 % of control
- T/C (endpoint: median tumor weight (est.), dose: 200.0 micrograms/kg/injection, schedule: Q07DX005 (ip), vehicle: saline + alcohol): 71 % of control
- T/C (endpoint: median tumor weight (est.), dose: 400.0 micrograms/kg/injection, schedule: Q07DX005 (ip), vehicle: saline + alcohol): 49 % of control

Structure (SMILES): COC(=O)C[C@](O)(CCCC(C)(C)O)C(=O)O[C@@H]1C(OC)=C[C@]23CCCN2CCc2cc4c(cc2[C@H]13)OCO4
- T/C (endpoint: median tumor weight (est.), dose: 0.25 mg/kg/injection, schedule: Q07DX005 (ip), vehicle: saline): 59 % of control
- T/C (endpoint: median tumor weight (est.), dose: 0.5 mg/kg/injection, schedule: Q07DX005 (ip), vehicle: saline): 57 % of control and 60 % of control
- T/C (endpoint: median tumor weight (est.), dose: 1.0 mg/kg/injection, schedule: Q07DX005 (ip), vehicle: saline): 61 % of control and 78 % of control
- T/C [1]: 14 % of control and 21 % of control
- T/C (endpoint: median tumor weight (est.), dose: 4.0 mg/kg/injection, schedule: Q07DX005 (ip), vehicle: saline): 7 % of control

Structure (SMILES): OCCOCCN1CCN(CCCN2c3ccccc3Sc3ccc(C(F)(F)F)cc32)CC1
- T/C (endpoint: median tumor weight (est.), dose: 3.12 mg/kg/injection, schedule: Q07DX005 (ip), vehicle: saline): 53 % of control
- T/C (endpoint: median tumor weight (est.), dose: 6.25 mg/kg/injection, schedule: Q07DX005 (ip), vehicle: saline): 97 % of control
- T/C (endpoint: median tumor weight (est.), dose: 12.5 mg/kg/injection, schedule: Q07DX005 (ip), vehicle: saline): 95 % of control
- T/C (endpoint: median tumor weight (est.), dose: 25.0 mg/kg/injection, schedule: Q07DX005 (ip), vehicle: saline): 71 % of control
- T/C (endpoint: median tumor weight (est.), dose: 50.0 mg/kg/injection, schedule: Q07DX005 (ip), vehicle: saline): 97 % of control

Structure (SMILES): CNc1nc(NC)nc(NC)n1
- T/C [2]: 83 % of control
- T/C (endpoint: median tumor weight (est.), dose: 12.5 mg/kg/injection, schedule: Q07DX006 (ip), vehicle: Klucel (hydroxypropylcellulose) (HPC)): 86 % of control
- T/C [3]: 163 % of control
- T/C (endpoint: median tumor weight (est.), dose: 25.0 mg/kg/injection, schedule: Q07DX006 (ip), vehicle: Klucel (hydroxypropylcellulose) (HPC)): 72 % of control
- T/C [4]: 107 % of control
- T/C (endpoint: median tumor weight (est.), dose: 50.0 mg/kg/injection, schedule: Q07DX006 (ip), vehicle: Klucel (hydroxypropylcellulose) (HPC)): 203 % of control
- T/C [5]: 93 % of control
- T/C (endpoint: median tumor weight (est.), dose: 100.0 mg/kg/injection, schedule: Q07DX006 (ip), vehicle: Klucel (hydroxypropylcellulose) (HPC)): 294 % of control
- T/C [6]: 174 % of control
- T/C (endpoint: median tumor weight (est.), dose: 200.0 mg/kg/injection, schedule: Q07DX006 (ip), vehicle: Klucel (hydroxypropylcellulose) (HPC)): 117 % of control
- T/C (endpoint: median tumor weight (est.), dose: 400.0 mg/kg/injection, schedule: Q07DX005 (ip), vehicle: Klucel (hydroxypropylcellulose) (HPC)): 65 % of control

Structure (SMILES): Cn1cnc([N+](=O)[O-])c1[Se]c1nc(N)nc2nc[nH]c12
- T/C (endpoint: median tumor weight (est.), dose: 6.25 mg/kg/injection, schedule: Q07DX005 (ip), vehicle: water): 109 % of control
- T/C (endpoint: median tumor weight (est.), dose: 12.5 mg/kg/injection, schedule: Q07DX005 (ip), vehicle: water): 104 % of control
- T/C (endpoint: median tumor weight (est.), dose: 25.0 mg/kg/injection, schedule: Q07DX005 (ip), vehicle: water): 173 % of control
- T/C (endpoint: median tumor weight (est.), dose: 50.0 mg/kg/injection, schedule: Q07DX005 (ip), vehicle: water): 215 % of control
- T/C (endpoint: median tumor weight (est.), dose: 200.0 mg/kg/injection, schedule: Q07DX005 (ip), vehicle: water): 107 % of control

Structure (SMILES): O=NN(CCCl)C(=O)NCCO
- T/C (endpoint: median tumor weight change, dose: 4.0 mg/kg/injection, schedule: Q01DX001 (ip), vehicle: water): 92 % of control
- T/C (endpoint: median tumor weight change, dose: 8.0 mg/kg/injection, schedule: Q01DX001 (ip), vehicle: water): 86 % of control
- T/C (endpoint: median tumor weight change, dose: 16.0 mg/kg/injection, schedule: Q01DX001 (ip), vehicle: water): 58 % of control

Structure (SMILES): COC1=C(C)C(=O)C2=C(C1=O)C1C3CC4=C(C(=O)C(OC)=C(C)C4=O)C(CNC(=O)C(C)=O)N3C(C#N)C(C2)N1C (stereo not given)
- T/C (endpoint: median tumor weight change, dose: 0.62 mg/kg/injection, schedule: Q01DX001 (ip), vehicle: Klucel (hydroxypropylcellulose) (HPC)): 114 % of control
- T/C (endpoint: median tumor weight change, dose: 0.63 mg/kg/injection, schedule: Q01DX001 (ip), vehicle: Klucel (hydroxypropylcellulose) (HPC)): 119 % of control
- T/C (endpoint: median tumor weight change, dose: 1.2 mg/kg/injection, schedule: Q01DX001 (ip), vehicle: Klucel (hydroxypropylcellulose) (HPC)): 109 % of control
- T/C (endpoint: median tumor weight change, dose: 1.25 mg/kg/injection, schedule: Q01DX001 (ip), vehicle: Klucel (hydroxypropylcellulose) (HPC)): 96 % of control
- T/C (endpoint: median tumor weight change, dose: 2.5 mg/kg/injection, schedule: Q01DX001 (ip), vehicle: Klucel (hydroxypropylcellulose) (HPC)): 98 % of control and 114 % of control

Structure (SMILES): CC(=O)Oc1c[nH]c(=O)[nH]c1=O
- T/C (endpoint: median tumor weight change, dose: 125.0 mg/kg/injection, schedule: Q01DX001 (ip), vehicle: saline with Tween-80): 62 % of control
- T/C (endpoint: median tumor weight change, dose: 250.0 mg/kg/injection, schedule: Q01DX001 (ip), vehicle: saline with Tween-80): 84 % of control
- T/C (endpoint: median tumor weight change, dose: 500.0 mg/kg/injection, schedule: Q01DX001 (ip), vehicle: saline with Tween-80): 32 % of control
- T/C (endpoint: median tumor weight change, dose: 1000.0 mg/kg/injection, schedule: Q01DX001 (ip), vehicle: saline with Tween-80): 32 % of control

Structure (SMILES): CC(=O)OC1=NC(C)c2c1cc(OC(C)=O)[nH]c2=O (stereo not given)
- T/C [2]: 86 % of control
- T/C [3]: 168 % of control
- T/C [4]: 111 % of control

Structure (SMILES): O=[n+]1c2ccccc2n([O-])c2ccccc21.[Cl][Ni][Cl]
- T/C (endpoint: median tumor weight change, dose: 15.63 mg/kg/injection, schedule: Q01DX001 (ip), vehicle: saline with Tween-80): 87 % of control
- T/C (endpoint: median tumor weight change, dose: 31.25 mg/kg/injection, schedule: Q01DX001 (ip), vehicle: saline with Tween-80): 52 % of control

Structure (SMILES): Cc1c(N)nc(C(CC(N)=O)NCC(N)C(N)=O)nc1C(=O)NC(C(=O)NC(C)C(O)C(C)C(=O)NC(C(=O)NCCc1nc(-c2nc(C(=O)NCCCNCCCc3ccccn3)cs2)cs1)C(C)O)C(OC1OC(CO)C(O)C(O)C1OC1OC(CO)C(O)C(OC(N)=O)C1O)c1cnc[nH]1 (stereo not given)
- T/C (endpoint: median tumor weight (est.), dose: 0.37 mg/kg/injection, schedule: Q07DX005 (ip), vehicle: water): 45 % of control
- T/C (endpoint: median tumor weight (est.), dose: 0.75 mg/kg/injection, schedule: Q07DX005 (ip), vehicle: water): 76 % of control
- T/C (endpoint: median tumor weight (est.), dose: 1.5 mg/kg/injection, schedule: Q07DX005 (ip), vehicle: water): 104 % of control
- T/C (endpoint: median tumor weight (est.), dose: 3.2 mg/kg/injection, schedule: Q07DX005 (ip), vehicle: water): 101 % of control
- T/C (endpoint: median tumor weight (est.), dose: 3.5 mg/kg/injection, schedule: Q07DX005 (ip), vehicle: water): 166 % of control
- T/C (endpoint: median tumor weight (est.), dose: 6.0 mg/kg/injection, schedule: Q07DX005 (ip), vehicle: water): 100 % of control
- T/C (endpoint: median tumor weight (est.), dose: 6.4 mg/kg/injection, schedule: Q07DX005 (ip), vehicle: water): 52 % of control
- T/C (endpoint: median tumor weight (est.), dose: 7.0 mg/kg/injection, schedule: Q07DX005 (ip), vehicle: water): 104 % of control
- T/C (endpoint: median tumor weight (est.), dose: 12.8 mg/kg/injection, schedule: Q07DX005 (ip), vehicle: water): 12 % of control
- T/C (endpoint: median tumor weight (est.), dose: 14.0 mg/kg/injection, schedule: Q07DX005 (ip), vehicle: water): 53 % of control
- T/C (endpoint: median tumor weight (est.), dose: 28.0 mg/kg/injection, schedule: Q07DX005 (ip), vehicle: water): 3 % of control

Structure (SMILES): O=C(O)CCCc1ccc(N(CCCl)CCCl)cc1
- T/C [1]: 234 % of control and 83 % of control
- T/C (endpoint: median tumor weight (est.), dose: 4.0 mg/kg/injection, schedule: Q07DX005 (ip), vehicle: saline with Tween-80): 77 % of control
- T/C (endpoint: median tumor weight (est.), dose: 7.5 mg/kg/injection, schedule: Q07DX005 (ip), vehicle: Klucel (hydroxypropylcellulose) (HPC)): 88 % of control
- T/C (endpoint: median tumor weight (est.), dose: 8.0 mg/kg/injection, schedule: Q07DX005 (ip), vehicle: saline with Tween-80): 46 % of control
- T/C (endpoint: median tumor weight (est.), dose: 15.0 mg/kg/injection, schedule: Q07DX005 (ip), vehicle: Klucel (hydroxypropylcellulose) (HPC)): 26 % of control
- T/C (endpoint: median tumor weight (est.), dose: 16.0 mg/kg/injection, schedule: Q07DX005 (ip), vehicle: saline with Tween-80): 43 % of control
- T/C (endpoint: median tumor weight (est.), dose: 30.0 mg/kg/injection, schedule: Q07DX005 (ip), vehicle: Klucel (hydroxypropylcellulose) (HPC)): 22 % of control
- T/C (endpoint: median tumor weight (est.), dose: 32.0 mg/kg/injection, schedule: Q07DX005 (ip), vehicle: saline with Tween-80): 16 % of control
- T/C (endpoint: median tumor weight (est.), dose: 32.0 mg/kg/injection, schedule: Q07DX005 (ip), vehicle: saline): 3 % of control and 14 % of control
- T/C (endpoint: median tumor weight change, dose: 16.0 mg/kg/injection, schedule: Q01DX001 (ip), vehicle: saline with Tween-80): 57 % of control
- T/C (endpoint: median tumor weight change, dose: 32.0 mg/kg/injection, schedule: Q01DX001 (ip), vehicle: saline with Tween-80): 62 % of control
- T/C (endpoint: median tumor weight change, dose: 64.0 mg/kg/injection, schedule: Q01DX001 (ip), vehicle: saline with Tween-80): 38 % of control

Structure (SMILES): C=CCNc1ccc(C)cc1
- T/C (endpoint: median tumor weight (est.), dose: 6.25 mg/kg/injection, schedule: Q07DX005 (ip), vehicle: Klucel (hydroxypropylcellulose) (HPC)): 73 % of control
- T/C [2]: 77 % of control
- T/C [3]: 80 % of control
- T/C [4]: 57 % of control
- T/C [5]: 88 % of control
- T/C [6]: 62 % of control
